Test [1] deals with GDP-bound NRAS wild-type protein (Homo sapiens, UniProt P01111). As to the kind of experiment: Binding to NRAS by surface plasmon resonance (SPR), Single Cycle Kinetics. To be noted: SPR; for NRAS/KRAS (ratio of KD value with respect to NRAS to KD value with respect to KRAS) / NRAS/KRAS (ratio of KD value for NRAS to KD value for KRAS): GDP-bound NRAS wild-type vs GDP-bound KRAS wild-type. Background: Surface plasmon resonance follows binding to a sensor surface in real time, without labels.
GDP-bound NRAS wild-type protein, sequence (P01111 whole entry): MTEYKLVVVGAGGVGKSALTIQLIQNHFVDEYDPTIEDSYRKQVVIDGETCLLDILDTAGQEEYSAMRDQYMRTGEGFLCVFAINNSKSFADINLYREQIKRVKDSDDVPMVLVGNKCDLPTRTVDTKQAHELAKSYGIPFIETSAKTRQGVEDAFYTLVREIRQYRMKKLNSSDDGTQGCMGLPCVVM

The target of test [2] is GDP-bound HRAS wild-type protein (Homo sapiens, UniProt P01112). Briefly: Binding to HRAS by surface plasmon resonance (SPR), Single Cycle Kinetics. The conditions noted are these: SPR; for HRAS/KRAS (ratio of KD value with respect to HRAS to KD value with respect to KRAS) / HRAS/KRAS (ratio of KD value for HRAS to KD value for KRAS): GDP-bound HRAS wild-type vs GDP-bound KRAS wild-type.
GDP-bound HRAS wild-type protein, sequence (P01112 whole entry): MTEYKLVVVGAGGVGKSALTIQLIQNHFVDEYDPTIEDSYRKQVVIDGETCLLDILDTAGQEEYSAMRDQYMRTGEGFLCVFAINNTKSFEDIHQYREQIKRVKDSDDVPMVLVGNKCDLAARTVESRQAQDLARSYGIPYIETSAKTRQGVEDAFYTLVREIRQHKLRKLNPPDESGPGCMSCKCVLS

Structures are written as SMILES.

On to `CCO[C@@H]1C[C@H]2C(=O)NC3(CCC3)C(=O)N(C)[C@@H](C3CCCC3)C(=O)N(C)[C@H](C(=O)N(C)C)CC(=O)N(C)[C@@H](CC)C(=O)N[C@@H]([C@@H](C)CC)C(=O)N3CCSC[C@H]3C(=O)N(C)[C@H]3C/C=C\CCN(C3=O)[C@@H](Cc3ccc(C(F)(F)F)cc3)C(=O)N(C)CC(=O)N[C@@H](CCc3cc(F)c(C(F)(F)F)c(F)c3)C(=O)N2C1` [PP1060], for which, in test [1] (KD ratio), the “NRAS/KRAS (ratio of KD value with respect to NRAS to KD value with respect to KRAS)” value was “A (a compound having 10 or more and less than 20 is denoted as A)”. For the same compound, in test [2] (KD ratio), the “HRAS/KRAS (ratio of KD value with respect to HRAS to KD value with respect to KRAS)” value is “A (a compound having 10 or more and less than 20 is denoted as A)”.

As to `CCC[C@H]1C(=O)N[C@@H](C2CCOCC2)C(=O)N(C)CC(=O)N(C)[C@H]2C/C=C\CCN(C2=O)[C@@H](Cc2ccc(C(F)(F)F)cc2)C(=O)N(C)CC(=O)N[C@@H](CCc2ccc(C(F)(F)F)c(Cl)c2)C(=O)N2C[C@H](OCC)C[C@H]2C(=O)NC2(CC(C)(C)C2)C(=O)N(C)[C@@H](CC(C)(C)C)C(=O)N(C)[C@H](C(=O)N(C)C)CC(=O)N1C` [PP3022], in test [1] (KD ratio NRAS/KRAS, GDP-bound wild-type proteins), the “NRAS/KRAS (ratio of KD value with respect to GDP-bound NRAS wild-type protein to KD value with respect to KRAS)” value was “AA (a compound having 20 or more is denoted as AA)”. Moreover, in test [2] (KD ratio HRAS/KRAS, GDP-bound wild-type proteins), the “HRAS/KRAS (ratio of KD value with respect to GDP-bound HRAS wild-type protein to KD value with respect to KRAS)” value is “A (a compound having 10 or more and less than 20 is denoted as A)”.

For `CCO[C@@H]1C[C@H]2C(=O)NC3(CCCC3)C(=O)N(C)[C@@H](C3CCCC3)C(=O)N(C)[C@H](C(=O)N(C)C)CC(=O)N(C)[C@@H](CC)C(=O)N[C@@H]([C@@H](C)CC)C(=O)N(C)CC(=O)N(C)[C@H]3C/C=C\CCN(C3=O)[C@@H](Cc3ccc(C(F)(F)F)cc3)C(=O)N(C)CC(=O)N[C@@H](CCc3cc(C)c(Cl)c(C)c3)C(=O)N2C1` [PP1823], the “NRAS/KRAS (ratio of KD value for NRAS to KD value for KRAS)” value in test [1] (KD ratio) was “A (a compound having 10 or more and less than 20 is denoted as A)”. Moreover, the “HRAS/KRAS (ratio of KD value for HRAS to KD value for KRAS)” value in test [2] (KD ratio) is “A (a compound having 10 or more and less than 20 is denoted as A)”.

For the compound `CCCN(C)C(=O)[C@@H]1CC(=O)N(C)[C@@H](C2CC2)C(=O)N[C@@H]([C@@H](C)CC)C(=O)N(C)CC(=O)N(C)[C@H]2C/C=C\CCN(C2=O)[C@@H](Cc2ccc(C(F)(F)F)cc2)C(=O)N(C)CC(=O)N[C@@H](CCc2ccc(C(F)(F)F)c(OC)c2)C(=O)N2C[C@H](OCC)C[C@H]2C(=O)NC2(CC(C)(C)C2)C(=O)N(C)[C@@H](C2CCCC2)C(=O)N1C` [PP1983], the “NRAS/KRAS (ratio of KD value for NRAS to KD value for KRAS)” value in test [1] (KD ratio) is recorded as “AA (a compound having 20 or more is denoted as AA)”. The “HRAS/KRAS (ratio of KD value for HRAS to KD value for KRAS)” value in test [2] (KD ratio) is “A (a compound having 10 or more and less than 20 is denoted as A)”.

For `CCO[C@@H]1C[C@H]2C(=O)NC3(CC(F)(F)C3)C(=O)N(C)[C@@H](C3CCCC3)C(=O)N3CCC[C@@H]3CC(=O)N(C)[C@@H](CC3CC3)C(=O)N[C@@H]([C@@H](C)CC)C(=O)N(C)CC(=O)N(C)[C@H]3C/C=C\CCN(C3=O)[C@@H](Cc3ccc(C(F)(F)F)cc3)C(=O)N(C)CC(=O)N[C@@H](CCc3cc(F)c(C(F)(F)F)c(F)c3)C(=O)N2C1` [PP1615], the “NRAS/KRAS (ratio of KD value for NRAS to KD value for KRAS)” value in test [1] (KD ratio) is “B (a compound having 3 or more and less than 10 is denoted as B)”. Moreover, the “HRAS/KRAS (ratio of KD value for HRAS to KD value for KRAS)” value in test [2] (KD ratio) is “B (a compound having 3 or more and less than 10 is denoted as B)”.

For the compound `CCC[C@H]1C(=O)N[C@@H]([C@@H](C)CC)C(=O)N2CCC[C@H]2C(=O)N(C)[C@H]2C/C=C\CCN(C2=O)[C@@H](Cc2ccc(C(F)(F)F)cc2)C(=O)N(C)CC(=O)N[C@@H](CCc2ccc(C(F)(F)F)c(OC)c2)C(=O)N2C[C@H](OCC)C[C@H]2C(=O)N(C)C2(CCC2)C(=O)N(C)[C@@H](C(CC)CC)C(=O)N(C)[C@H](C(=O)N(C)C)CC(=O)N1C` [PP2317], the “NRAS/KRAS (ratio of KD value with respect to NRAS to KD value with respect to KRAS)” value in test [1] is “A (a compound having 10 or more and less than 20 is denoted as A)”. In addition, the “HRAS/KRAS (ratio of KD value with respect to HRAS to KD value with respect to KRAS)” value in test [2] is “A (a compound having 10 or more and less than 20 is denoted as A)”.

On to `CCCOC[C@H]1C(=O)N[C@@H]([C@@H](C)CC)C(=O)N(C)CC(=O)N(C)[C@H]2C/C=C\CCN(C2=O)[C@@H](Cc2ccc(C(F)(F)F)cc2)C(=O)N(C)CC(=O)N[C@@H](CCc2cc(F)c(C(F)(F)F)c(F)c2)C(=O)N2C[C@@H](C)C[C@H]2C(=O)NC2(CCC2)C(=O)N(C)[C@@H](C2CCCC2)C(=O)N(C)[C@H](C(=O)N(C)CCC)CC(=O)N1C` [PP2008], for which the “NRAS/KRAS (ratio of KD value for NRAS to KD value for KRAS)” value in test [1] (KD ratio) is “A (a compound having 10 or more and less than 20 is denoted as A)”. Further, the “HRAS/KRAS (ratio of KD value for HRAS to KD value for KRAS)” value in test [2] (KD ratio) is “A (a compound having 10 or more and less than 20 is denoted as A)”.
